This note sets out measurements from ChEMBL document CHEMBL1126033, “C-terminal modifications of nonpeptide renin inhibitors: improved oral bioavailability via modification of physicochemical properties” (J Med Chem, 1992).

Data set [1] deals with T1, Renin (Homo sapiens, UniProt P00797).
T1 sequence (P00797 whole entry): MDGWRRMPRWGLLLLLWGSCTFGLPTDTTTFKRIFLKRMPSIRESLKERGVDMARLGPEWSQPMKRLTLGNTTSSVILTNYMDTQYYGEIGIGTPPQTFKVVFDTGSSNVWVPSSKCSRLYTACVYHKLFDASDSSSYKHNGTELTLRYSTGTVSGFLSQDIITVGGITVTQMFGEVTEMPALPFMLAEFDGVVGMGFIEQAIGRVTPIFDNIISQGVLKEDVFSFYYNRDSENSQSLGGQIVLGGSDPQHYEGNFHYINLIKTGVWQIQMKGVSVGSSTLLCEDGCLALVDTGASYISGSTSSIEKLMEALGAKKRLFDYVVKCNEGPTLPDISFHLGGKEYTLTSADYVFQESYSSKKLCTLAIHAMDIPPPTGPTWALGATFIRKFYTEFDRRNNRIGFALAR
The data set can be described thus: In vitro activity against human renin (pH 6.0).

In data set [2] the target is T1, Renin. The data set is classed as cell-free, Plasma.
Data set [3] is described as follows: Partition coefficient (logD7.4). To be noted: octanol/water, pH 7.4.
The nature of data set [4]: Partition coefficient (logD6.5). To be noted: octanol/water, pH 6.5.
The nature of data set [5]: Average peak plasma drug concentration after id dose of 10 mg/kg in ferrets(Plasma samples collected from portal blood). The following applies: ferret.
Data set [6] in a line: Average peak plasma drug concentration after id dose of 10 mg/kg in ferrets(Plasma samples collected from arterial blood). To be noted: ferret.
Data set [7] is described as follows: Bioavailability in ferret. To be noted: in vivo.
The subject of data set [8] is Mustela putorius furo. Briefly: Average area under curve value dosed at 10 mg/kg, id in ferrets. The following applies: ferret, in vivo, other.
The nature of data set [9]: Average peak plasma drug concentration after iv dose of 0.3 mg/kg in ferrets. The following applies: ferret.
Data set [10] relates to Mustela putorius furo. The data set can be described thus: Average area under curve value dosed at 0.3 mg/kg, iv in ferrets. To be noted: ferret, in vivo.

One may read the IC50 as the concentration at which inhibition is half-maximal. A high value points to lower potency. `CCCC[C@H](O[C@@H](Cc1ccccc1)C(=O)N1CCC(OCOC)CC1)C(=O)N[C@@H](CC1CCCCC1)[C@@H](O)C[C@H](N)C(C)C` yielded an IC50 at Renin [1] of 110 nM.
`CCCC[C@H](O[C@@H](Cc1ccccc1)C(=O)N1CCC(OCOC)CC1)C(=O)N[C@@H](CC1CCCCC1)[C@@H](O)C[C@H](C(=O)NCCC[N+]1([O-])CCOCC1)C(C)C`: the IC50 at Renin [1] was 1.3 nM; at Renin [2], 3.5 nM.
As a reminder, the logD is lipophilicity at a set pH, counting ionised and neutral species. For the compound `CCCC[C@H](O[C@@H](Cc1ccccc1)C(=O)N1CCC(OCOC)CC1)C(=O)N[C@@H](CC1CCCCC1)[C@@H](O)C[C@H](C(=O)NCCc1ccccn1)C(C)C`, the pH-dependent lipophilicity (logD) in [3] and in data set [4] was over 5 each time. Also, the figures for the IC50 against Renin [1] and against Renin [2] were 1 nM and 5.1 nM, respectively.
`CC(C)[C@H](C[C@H](O)[C@H](CC1CCCCC1)NC(=O)[C@H](Cc1c[nH]cn1)NC(=O)[C@H](Cc1ccccc1)NC(=O)OC(C)(C)C)NS(=O)(=O)C(C)C`: half-maximal inhibition against Renin [1] (IC50) was put at 67 nM.
For `CCCC[C@H](O[C@@H](Cc1ccccc1)C(=O)N1CCC(OCOC)CC1)C(=O)N[C@@H](CC1CCCCC1)[C@@H](O)C[C@H](C(=O)N1CCCN(C)CC1)C(C)C`, the results for the IC50 at Renin [1] and at Renin [2] were 17 nM and 79 nM, respectively. In addition, the logD in [4] turned out to be 3.7.
Compound `CCCC[C@H](O[C@@H](Cc1ccccc1)C(=O)N1CCC(OCOC)CC1)C(=O)N[C@@H](CC1CCCCC1)[C@@H](O)C[C@H](C(=O)NCCC[N+](C)(C)[O-])C(C)C` had a concentration for half-maximal inhibition (IC50) against Renin [2] of 5 nM.
In the case of `CCCCC(=O)N[C@@H](C[C@H](O)[C@H](CC1CCCCC1)NC(=O)[C@H](CCCC)O[C@@H](Cc1ccccc1)C(=O)N1CCC(OCOC)CC1)C(C)C`, 53 nM corresponded to half-maximal inhibition on Renin [2] (IC50). This IC50 lies about 11-fold higher than the previous one.
Regarding `CC(C)[C@H](C[C@H](O)[C@H](CC1CCCCC1)NC(=O)[C@H](Cc1c[nH]cn1)NC(=O)[C@H](Cc1ccccc1)NC(=O)OC(C)(C)C)NC(=O)OCc1ccccc1`, on Renin [1], the half-maximal inhibitory concentration (IC50) is 11 nM. In other words, the double-digit nanomolar range.
Usually Cmax stands for the highest concentration seen after dosing. As usually defined, the bioavailability is the share of a dose that reaches the circulation, judged against a reference dose that is usually intravenous. Read a low bioavailability as poor availability. In the case of `CCCC[C@H](O[C@@H](Cc1ccccc1)C(=O)N1CCC(OCOC)CC1)C(=O)N[C@@H](CC1CCCCC1)[C@@H](O)C[C@H](C(=O)NCCCN(C)C)C(C)C`, the logD in data set [3] was determined as 3.1; in data set [4], 2.3. The Cmax amounted to 4990 ng/mL in data set [5] (plasma (from portal blood)), 5050 ng/mL in data set [6] (plasma (from arterial blood)) and 2990 ng/mL in data set [9] (plasma). Besides, the bioavailability in [7] is 50%. Further, the figures for the Average AUC with Mustela putorius furo [8] and with Mustela putorius furo [10] were 9670 ng·h/mL and 573 ng·h/mL, respectively. For the same compound, the IC50 on Renin [2] was 5.9 nM.
Consider `CCCC[C@H](N[C@@H](Cc1ccccc1)C(=O)N1CCC(OCOC)CC1)C(=O)N[C@@H](CC1CCCCC1)[C@@H](O)C[C@H](C(=O)NCCCn1ccnc1)C(C)C`, for which the IC50 at Renin [1] is 2 nM; on Renin [2], 7.6 nM.
In the case of `CCCC[C@H](O[C@@H](Cc1ccccc1)C(=O)N1CCC(OCOC)CC1)C(=O)N[C@@H](CC1CCCCC1)[C@@H](O)C[C@H](C(=O)N(C)CCCN(C)C)C(C)C`, the logD in data set [3] was 3.7; in [4], 2.5. Further, the IC50 against Renin [1] turned out to be 57 nM; against Renin [2], 270 nM.
As for `CCCCC(=O)N[C@@H](C[C@H](O)[C@H](CC1CCCCC1)NC(=O)[C@H](Cc1c[nH]cn1)NC(=O)[C@H](Cc1ccccc1)NC(=O)OC(C)(C)C)C(C)C`, the IC50 against Renin [1] stood at 6 nM; against Renin [2] it was 200 nM.
For `CC(C)[C@H](C[C@H](O)[C@H](CC1CCCCC1)NC(=O)[C@H](Cc1cnc[nH]1)NC(=O)[C@H](Cc1ccccc1)NC(=O)OC(C)(C)C)NC(=O)OCCN1CCOCC1` the same measures were 1.3 nM and 4.7 nM.
For `CCCOC(=O)N[C@@H](C[C@H](O)[C@H](CC1CCCCC1)NC(=O)[C@H](Cc1cnc[nH]1)NC(=O)[C@H](Cc1ccccc1)NC(=O)OC(C)(C)C)C(C)C` the same measures were 1.7 nM and 16 nM.
In the same order, the values of `CCCC[C@H](O[C@@H](Cc1ccccc1)C(=O)N1CCC(OCOC)CC1)C(=O)N[C@@H](CC1CCCCC1)[C@@H](O)C[C@H](NC(=O)OCCN1CCCC1)C(C)C` are 2.5 nM and 13 nM.
Consider `CCCC[C@H](O[C@@H](Cc1ccccc1)C(=O)N1CCC(OCOC)CC1)C(=O)N[C@@H](CC1CCCCC1)[C@@H](O)C[C@H](C(=O)N(C)CCN(C)C)C(C)C`, for which the logD in [3] was over 5; in data set [4] it was 3.3. Besides, the results for the IC50 at Renin [1] and against Renin [2] were 30 nM and 290 nM, respectively.
Turning to `CCCC[C@H](O[C@@H](Cc1ccccc1)C(=O)N1CCC(OCOC)CC1)C(=O)N[C@@H](CC1CCCCC1)[C@@H](O)C[C@H](NC(=O)OCCC(C)C)C(C)C`, the IC50 was 5 nM at Renin [1] and 56 nM at Renin [2].
For `CCCC[C@H](O[C@@H](Cc1ccccc1)C(=O)N1CCC(OCOC)CC1)C(=O)N[C@@H](CC1CCCCC1)[C@@H](O)C[C@H](NC(=O)OCCC)C(C)C` the same measures were 1.5 nM and 14 nM.
As for `CCCC[C@H](N[C@@H](Cc1ccccc1)C(=O)N1CCC(OCOC)CC1)C(=O)N[C@@H](CC1CCCCC1)[C@@H](O)C[C@H](C(=O)NCCCN1CCOCC1)C(C)C`, the figures for the log distribution coefficient (logD) in [3] and in data set [4] were 4.5 and 3.9, respectively. Further, the results for the Cmax in data set [5] (in vivo), in data set [6] (in vivo) and in data set [9] (in vivo) were 4350 ng/mL, 3490 ng/mL and 1310 ng/mL, respectively. The bioavailability in data set [7] is 34%. In addition, the results for the Average AUC with Mustela putorius furo [8] and in the data set with Mustela putorius furo [10] were 7700 ng·h/mL and 682 ng·h/mL, respectively.
`CCCC[C@H](O[C@@H](Cc1ccccc1)C(=O)N1CCC(OCOC)CC1)C(=O)N[C@@H](CC1CCCCC1)[C@@H](O)C[C@H](NC(=O)NCCC)C(C)C`: the values for the IC50 against Renin [1] and at Renin [2] were 2.4 nM and 16 nM, respectively.
For `CCCC[C@H](O[C@@H](Cc1ccccc1)C(=O)N1CCC(OCOC)CC1)C(=O)N[C@@H](CC1CCCCC1)[C@@H](O)C[C@H](NC(=O)OCCc1ccccn1)C(C)C`, the logD in data set [3] stood at 3.4; in data set [4] it was 2.7. For the same compound, the IC50 against Renin [1] is 0.9 nM; against Renin [2], 40 nM.
For the compound `CC(C)[C@H](C[C@H](O)[C@H](CC1CCCCC1)NC(=O)[C@H](Cc1c[nH]cn1)NC(=O)[C@H](Cc1ccccc1)NC(=O)OC(C)(C)C)NC(=O)OCCN1CCCC1`, the figures for the IC50 on Renin [1] and against Renin [2] were 2.7 nM and 28 nM, respectively.
In the same order, the values of `CC(C)[C@H](C[C@H](O)[C@H](CC1CCCCC1)NC(=O)[C@H](Cc1c[nH]cn1)NC(=O)[C@H](Cc1ccccc1)NC(=O)OC(C)(C)C)NC(=O)OCCN(C)C` are 2.3 nM and 12 nM.
Regarding `CCCC[C@H](N[C@@H](Cc1ccccc1)C(=O)N1CCC(OCOC)CC1)C(=O)N[C@@H](CC1CCCCC1)[C@@H](O)C[C@H](NC(=O)OCCN1CCOCC1)C(C)C`, the logD was determined as 4.3 in data set [3] and 3.9 in data set [4]. Moreover, the IC50 came out at 1.8 nM against Renin [1] and 9.5 nM on Renin [2].
In the same order, the values of `CCCC[C@H](O[C@@H](Cc1ccccc1)C(=O)N1CCC(OCOC)CC1)C(=O)N[C@@H](CC1CCCCC1)[C@@H](O)C[C@H](C(=O)NCCN(C)C)C(C)C` are 4.3, 3.3, 2.9 nM and 5.7 nM.
As to `CCCC[C@H](O[C@@H](Cc1ccccc1)C(=O)N1CCC(OCOC)CC1)C(=O)N[C@@H](CC1CCCCC1)[C@@H](O)C[C@H](NS(C)(=O)=O)C(C)C`, the half-inhibitory concentration (IC50) against Renin [1] amounted to 4.3 nM; at Renin [2], 61 nM.
Consider `CCCC[C@H](O[C@@H](Cc1ccccc1)C(=O)N1CCC(OCOC)CC1)C(=O)N[C@@H](CC1CCCCC1)[C@@H](O)C[C@H](NC(=O)OCCCN(C)C)C(C)C`, for which the values for the logD in data set [3] and in data set [4] were 3.8 and 2.9, respectively. Also, the values for the IC50 against Renin [1] and at Renin [2] were 2.4 nM and 12 nM, respectively.
Consider `CCCC[C@H](O[C@@H](Cc1ccccc1)C(=O)N1CCC(OCOC)CC1)C(=O)N[C@@H](CC1CCCCC1)[C@@H](O)C[C@H](NC(=O)OCc1ccccc1)C(C)C`, for which the IC50 on Renin [1] came to 2.2 nM; against Renin [2], 83 nM.
In the same order, the values of `CCCNC(=O)N[C@@H](C[C@H](O)[C@H](CC1CCCCC1)NC(=O)[C@H](Cc1c[nH]cn1)NC(=O)[C@H](Cc1ccccc1)NC(=O)OC(C)(C)C)C(C)C` are 2.7 nM and 83 nM.
On Renin [1], `CC(C)[C@H](C[C@H](O)[C@H](CC1CCCCC1)NC(=O)[C@H](Cc1c[nH]cn1)NC(=O)[C@H](Cc1ccccc1)NC(=O)OC(C)(C)C)NS(C)(=O)=O` had a half-maximal inhibitory concentration (IC50) of 28 nM.
Consider `CCCC[C@H](N[C@@H](Cc1ccccc1)C(=O)N1CCC(OCOC)CC1)C(=O)N[C@@H](CC1CCCCC1)[C@@H](O)C[C@H](C(=O)NCCCN(C)C)C(C)C`, for which the logD in data set [3] amounted to 2.8; in [4], 2.2. Also, the IC50 was found to be 2.1 nM on Renin [1] and 6.1 nM against Renin [2].
Turning to `CC(C)[C@H](C[C@H](O)[C@H](CC1CCCCC1)NC(=O)[C@H](Cc1cnc[nH]1)NC(=O)[C@H](Cc1ccccc1)NC(=O)OC(C)(C)C)NC(=O)OCCCN(C)C`, the IC50 at Renin [1] was determined as 2.8 nM; on Renin [2] it was 17 nM.
For `CC(C)[C@H](C[C@H](O)[C@H](CC1CCCCC1)NC(=O)[C@H](Cc1c[nH]cn1)NC(=O)[C@H](Cc1ccccc1)NC(=O)OC(C)(C)C)NC(=O)OCCc1ccccn1`, the IC50 at Renin [1] came out at 1.3 nM; against Renin [2] it was 17 nM.
